Test results from article PMC3260180, “FRET-Based Detection of M1 Muscarinic Acetylcholine Receptor Activation by Orthosteric and Allosteric Agonists” (PLoS ONE, 2012).

Key:
M1-cam5 AChR = molecular target: T1, M1-cam5 AChR (Mus musculus, UniProt P12657, INS361[…]); experiment: [3H]NMS competition binding in intact HEK293-M1-cam5 cell monolayers; details: [3H]NMS (~0.3 nM) competition, agonists 4°C for 4 h, antagonists 37°C for 45 min, mean ± s.e.m.
T1 construct: addition of the EYFP^F46L to the C-terminus of full length M1 mAChR; expressed in transfected cells; host or cells: HEK293 cells stably expressing M1-cam5 (HEK293-M1-cam5)
Method: Briefly, HEK293-M1-cam5 cells were seeded at a density of 75,000 cells/well in 24-well plates. […] […] After cell solubilization, SafeFluor scintillation fluid was added, and samples were counted on a scintillation counter.

M1-cam5 mAChR [1] = molecular target: T2, M1-cam5 mAChR (Mus musculus, UniProt P12657, INS361[…]); experiment: FRET measurements (FEYFP/FECFP) in HEK293-M1-cam5 cells; format: cell-based; parameters: addition of the EYFP^F46L to the C-terminus of full length M1 mAChR; expressed in transfected cells; host or cells: HEK293 cells stably expressing M1-cam5 (HEK293-M1-cam5); details: for maximal FRET decrease: maximally effective concentration (MCh 300 µM, arecoline 300 µM, pilocarpine 300 µM, 77-LH-28-1 10 µM, AC-42 30 µM), room temperature
Method: The experiments were performed at room temperature.
We also assessed the kinetics of MCh-mediated receptor conformational change with time-resolved determinations of the FRET signal recorded from single cells on activation of M1-cam5 mAChR with various concentrations of MCh.

M1-cam5 mAChR [2] = molecular target: T2, M1-cam5 mAChR; experiment: Receptor internalization by confocal microscopy in HEK293-M1-cam5 cells; format: cell-based; parameters: addition of the EYFP^F46L to the C-terminus of full length M1 mAChR; expressed in transfected cells; host or cells: HEK293 cells stably expressing M1-cam5 (HEK293-M1-cam5)
Method: Cells were seeded on coverslips coated with 100 µg/mL poly-D-lysine in PBS. When 70–80% confluency was reached, in some instances the cells were treated with various concentrations of agonists at 37°C and fixed with 4% paraformaldehyde. After a 5 min wash with PBS, the slides were mounted with Slowfade Gold/DAPI (Invitrogen, UK). The slides were examined using an Olympus FV500 confocal microscope, ECFPc and EYFP^F46L were excited via the 458 nm and 515 nm line of the argon laser and emissions were then collected at 480–495 nm and 535–565 nm, respectively. Optical sections (0.5 µm) were taken, and representative sections corresponding to the middle of the cells are presented. For each treatment, between 20 and 30 individual cells in three random fields of view were selected and examined. Fluorescence intensity of specific regions of interest (longitudinal axis) was quantified by using the Measure function of Image J software developed at the National Institutes of Health (http://rsb.info.nih.gov/ij/), as previously described. Briefly, relative quantification of intracellular (internalized) M1-cam5 was determined by measuring the amount of total fluorescence along the longitudinal axis corresponding to the intracellular space (average 4–18 ìm) excluding nucleus. Intracellular fluorescence in cells not treated with the agonist was considered to be basal fluorescence (assigned the value of 1). All other data are normalized to this basal fluorescence level.
Figure 4 Internalization characteristics of the M1-cam5 mAChR stably expressed in HEK293 cells. HEK293-M1-cam5 cells were treated with various concentration of MCh for 45 min (to assess the concentration-dependency of receptor internalization), or with MCh (300 µM) for 0–60 min (to assess the time-dependency of receptor internalization). Cellular distributions of M1-cam5 mAChR were monitored by confocal microscopy. For quantification of intracellular fluorescence at least […] of view were examined as described in the Methods section. […]

M3 mAChRs = experiment: Total [3H]inositol phosphate accumulation in wild-type HEK293 cells; format: cell-based, human; details: Li+ (10 mM)
Method: (§1) HEK293-M1-cam5 and HEK293 cells were seeded at 100,000 cells/well in 24-well plates and incubated in fresh medium containing 2.5 µCi/mL [^3H]inositol for 48 h. The assay was performed as previously described.
As an index of PLC activation, agonist-stimulated accumulation of total [^3H]IPx was assessed in the presence of Li^+ (10 mM).

M1-cam5 mAChR [3] = molecular target: T2, M1-cam5 mAChR; experiment: Total [3H]inositol phosphate accumulation in HEK293-M1-cam5 cells; format: cell-based; parameters: addition of the EYFP^F46L to the C-terminus of full length M1 mAChR; expressed in transfected cells; host or cells: HEK293 cells stably expressing M1-cam5 (HEK293-M1-cam5); details: in presence of Li+ (10 mM)
Method: as §1
As an index of PLC activation, agonist-stimulated accumulation of total [^3H]IPx was assessed in the presence of Li^+ (10 mM). […] On removal of agonist, the eGFP-PH biosensor translocated back to the plasma membrane.

M1-cam5 mAChR [4] = molecular target: T2, M1-cam5 mAChR; details: 1–300 µM for 5 min, serum-starved HEK293-M1-cam5 cells
Method: Proteins were visualized using ECL reagent from GE Healthcare (Chalfont St. Giles, UK).
Phosphoinositide turnover was assessed by monitoring the translocation of the eGFP-PH probe from the plasma membrane to the cytoplasm on addition of MCh (10 µM) for 60 s, followed by washout.

M1-cam5 = molecular target: T3, M1-cam5 (Mus musculus, UniProt P12657, INS361[…]); experiment: eGFP-PH biosensor translocation (phosphoinositide turnover) in HEK293-M1-cam5 cells; format: cell-based; details: 10 µM for 60 s
T3 construct: addition of the EYFP^F46L to the C-terminus of full length M1 mAChR; expressed in transfected cells; host or cells: HEK293 cells stably expressing M1-cam5 (HEK293-M1-cam5)

[5] = molecular target: M1-3ic-ECFPc and M1-cterm-EYFP^F46L (Mus musculus, UniProt P12657, INS361[…]); experiment: FRET control with coexpressed M1-3ic-ECFPc and M1-cterm-EYFPF46L in HEK293 cells; details: 300 µM
Method: Briefly, HEK293 cells grown on coverslips were mounted on a Nikon Eclipse TE2000-S inverted microscope (Nikon) using an “Attofluor” cell chamber (Molecular Probes, Leiden, The Netherlands) and continuously superfused with HBS (150 mM NaCl, 10 mM HEPES, 10 mM glucose, 2.5 mM KCl, 4 mM CaCl2, 2 mM MgCl2, pH 7.4). Cells were observed using an oil immersion 63× lens, a polychrome V (Till Photonics, Gräfelfing, Germany) for excitation, and a dual emission photometric system. In order to minimize photobleaching, illumination time was set to 10–40 ms, applied with a frequency of 10 Hz. Fluorescence was measured at 535±15 nm (F535) and 480±20 nm (F480) (beam splitter DCLP 505 nm, Chroma Technology, Rockingham, VT, USA) on excitation at 436±10 nm (beam splitter DCLP 460 nm, Chroma Technology). The signals were detected by avalanche photodiodes and digitized using an analog/digital converter (Digidata 1322A, Axon Instruments, Union City, CA, USA) and stored on a PC using Axoscope software (Axon Instruments). The experiments were performed at room temperature.
FRET was assessed using the ratio of normalized EYFP^F46L/ECFPc fluorescence intensities.
HEK-293 cells were transiently transfected with either (A) M1-cam5 or (B) two separate plasmids, one encoding M1 with a C-terminal YFP^F46L tag and the other encoding M1 with an ECFPc tag at the same third intracellular loop location as M1-cam5. […]

Compound	pK B (apparent binding affinity, −log K B) (M1-cam5 AChR)	maximal FRET decrease (M1-cam5 mAChR [1]) [%]	M1-cam5 mAChR internalization (endocytosis) (M1-cam5 mAChR [2])	further results
CCCCC1CCN(CCCN2C(=O)CCc3ccccc32)CC1 [77-LH-28-1]	6.17±0.12	6.4±0.4		
CCCCC1CCN(CCCC(=O)c2ccccc2C)CC1 [AC-42]	5.11±0.11	5.1±0.3	resulted in receptor endocytosis	
CC(=O)OC(C)C[N+](C)(C)C (stereo not drawn) [MCh, methacholine]		9.8±0.4	internalized in response to MCh in a concentration- and time-dependent manner	EC50 right-shift of [3H]IPx accumulation relative to HEK293-M1-cam5 cells (M3 mAChRs): > 10 fold; [3H]IPx accumulation, maximal stimulation (M1-cam5 mAChR [3]; basal 3,781±1,792): 41,954±1,030 d.p.m. mg^−1 protein; increase in [3H]IPx accumulation, maximal stimulation (M1-cam5 mAChR [3]; over basal): 11 fold; ERK1/2 phosphorylation (M1-cam5 mAChR [4]): rapid increase; translocation of the eGFP-PH biosensor from the plasma membrane to the cytoplasm (M1-cam5): detectable translocation; FRET response in cells coexpressing singly tagged receptors [5]: no FRET response
CN1[C@@H]2CC[C@H]1C[C@@H](OC(=O)C(CO)c1ccccc1)C2 (stereo partly drawn) [atropine]				effect alone on basal M1-cam5 FRET signal (M1-cam5 mAChR [1]): no effect; prevention of agonist-induced FRET change by pre-addition (M1-cam5 mAChR [1]): completely prevented; reversal of agonist-induced FRET change (M1-cam5 mAChR [1]): reversed
C[N+](C)(C)CC#CCN1CCCC1=O [oxo-M, oxotremorine-M]	5.94±0.10		resulted in receptor endocytosis	
